These results are taken from patent publication US10633345B2, “Human plasma kallikrein inhibitors” (BioCryst Pharmaceuticals, Inc., priority 2014, dated 2020).

As a reminder, the Ki is a measure of affinity in units of concentration, obtained from inhibition or displacement.

One assay addresses human plasma kallikrein (Homo sapiens (Human), UniProt P03952). The assay is described as follows: Plasma kallikrein activity assay (chromogenic substrate S2302). In kind it is biochemical. The conditions noted are these: 2 nM kallikrein, 80 μM S2302, 30° C., pH 7.8; Cheng-Prusoff; values given as bins.
In assay [1] the test system is patients with hereditary angioedema (HAE). As to conditions: cited from earlier work.
For assay [2], the system named is mouse model of middle cerebral artery occlusion (MCAO). The conditions noted are these: cited from earlier work.

human plasma kallikrein, sequence (P03952 whole entry, looked up): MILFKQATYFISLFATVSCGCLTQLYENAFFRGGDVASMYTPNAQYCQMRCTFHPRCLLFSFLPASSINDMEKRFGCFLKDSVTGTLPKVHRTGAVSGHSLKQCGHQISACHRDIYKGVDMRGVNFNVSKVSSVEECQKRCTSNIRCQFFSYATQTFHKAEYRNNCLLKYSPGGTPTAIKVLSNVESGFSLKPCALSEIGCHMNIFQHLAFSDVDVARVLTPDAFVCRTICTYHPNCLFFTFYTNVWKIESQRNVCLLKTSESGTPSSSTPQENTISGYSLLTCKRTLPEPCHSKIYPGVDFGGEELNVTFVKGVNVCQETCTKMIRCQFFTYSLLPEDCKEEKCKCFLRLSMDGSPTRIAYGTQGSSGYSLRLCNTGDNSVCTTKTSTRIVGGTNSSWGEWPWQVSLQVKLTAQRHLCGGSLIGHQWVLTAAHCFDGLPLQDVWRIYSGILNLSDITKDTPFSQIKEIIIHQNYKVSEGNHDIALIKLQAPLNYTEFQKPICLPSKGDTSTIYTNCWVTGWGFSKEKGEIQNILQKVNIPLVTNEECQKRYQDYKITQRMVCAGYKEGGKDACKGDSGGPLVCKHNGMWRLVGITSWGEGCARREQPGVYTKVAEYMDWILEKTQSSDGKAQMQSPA
human plasma kallikrein, sequence (P03952 whole entry partner, looked up): as the sequence (P03952 whole entry, looked up) above
Description for human plasma kallikrein: Plasma Kallikrein Activity Assay.
The effect of compounds of the invention on human plasma kallikrein activity was determined using the chromogenic substrates (DiaPharma Group, Inc., West Chester, Ohio, USA). In these experiments, 2 nM kallikrein (Enzyme Research Laboratories, South Bend, Ind., USA) was incubated with 80 μM S2302 (H-D-Pro-Phe-Arg-p-nitroaniline) in the absence or presence of increasing concentrations of compounds of the invention in a final volume of 200 μL Tris-HCl buffer (200 mM NaCl; 2.5 mM CaCl2; 50 mM Tris-HCl, pH 7.8).
Data were analyzed using SigmaPlot software (Systat Software, Inc., San Jose, Calif., USA) (Four Parameter Logistic Curve).

Molecule `N#Cc1cccc(C(N)(CCC2CC2)c2ccc(F)c(NC(=O)c3cc(C(F)(F)F)nn3-c3cccc(C(N)=O)c3)c2)c1` (single isomer, unassigned; (-)) [Compound 267c, (−)-N-(5-(1-amino-1-(3-cyanophenyl)-3-cyclopropylpropyl)-2-fluorophenyl)-1-(3-carbamoylphenyl)-3-(trifluoromethyl)-1H-pyrazole-5-carboxamide] gave a Ki at human plasma kallikrein of over 100 nM.

As for ecallantide [DX-88], in assay [1], the “edema in patients with hereditary angioedema (HAE)” value is on record as “alleviates edema”.

B1: C1-inhibitor: "a physiological inhibitor (C1-inhibitor)" (protein, UniProt P05155 23-500, looked up)
Plasma protease C1 inhibitor: NPNATSSSSQDPESLQDRGEGKVATTVISKMLFVEPILEVSSLPTTNSTTNSATKITANTTDEPTTQPTTEPTTQPTIQPTQPTTQLPTDSPTQPTTGSFCPGPVTLCSDLESHSTEAVLGDALVDFSLKLYHAFSAMKKVETNMAFSPFSIASLLTQVLLGAGENTKTNLESILSYPKDFTCVHQALKGFTTKGVTSVSQIFHSPDLAIRDTFVNASRTLYSSSPRVLSNNSDANLELINTWVAKNTNNKISRLLDSLPSDTRLVLLNAIYLSAKWKTTFDPKKTRMEPFHFKNSVIKVPMMNSKKYPVAHFIDQTLKAKVGQLQLSHNLSLVILVPQNLKHRLEDMEQALSPSVFKAIMEKLEMSKFQPTLLTLPRIKVTTSQDMLSIMEKLEFFDFSYDLNLCGLTEDPDLQVSAMQHQTVLELTETGVEAAAASAISVARTLLVFEVQQPFLFVLWDQQHKFPVFMGRVYDPRA
With B1, in assay [2], the infarct size result is recorded as “reduced”.
